Laboratory results from patent publication US10828316B2, “Method of treating bacterial infections” (priority 2016, dated 2020).
≈ marks a conversion by molar mass, not a printed value. Like-named read-outs stand apart in the source and are kept apart here.

Columns and labels:
K. pneumoniae EN010 = assay: MIC; assay type: cell-based, Klebsiella pneumoniae; conditions: Combination 1 (AZT+trimethoprim+uridine)
S. epidermidis EN0456 = assay: MIC; assay type: cell-based, Staphylococcus epidermidis
A. baumannii EN017 = assay: MIC; assay type: cell-based, Acinetobacter baumannii; conditions: Acinetobacter baumannii, EN017, A. baumannii EN017
K. pneumoniae EN0233 = assay: MIC; assay type: cell-based; conditions: in AZT+trimethoprim+uridine combination
E. coli B EN0458 = assay: MIC; assay type: cell-based, Escherichia coli B
[1] = system: Helicobacter pylori APV00918; assay: MIC; assay type: cell-based; conditions: in FdUrd+trimethoprim+uridine combination
Text: (§1) Inhibition of Heliobacter is important in view of increasing resistance and its association to gastric cancer.

[2] = system: Helicobacter pylori ATTC43504; assay: MIC; assay type: cell-based
Text: as §1

P. aeruginosa EN0004 = assay: MIC; assay type: cell-based
E. coli EN0001 = assay: MIC; assay type: cell-based
S. sonnei APV00908 = assay: MIC; assay type: cell-based; conditions: S. sonnei APV00908
K. pneumoniae EN0463 = assay: MIC; assay type: cell-based, Klebsiella pneumoniae
K. pneumoniae EN006 = assay: MIC; assay type: cell-based, Klebsiella pneumoniae; conditions: Combination 1 (AZT+trimethoprim+uridine)
E. coli EN013 = assay: MIC; assay type: cell-based, Escherichia coli; conditions: Escherichia coli, EN013, E. coli EN013
A. baumannii EN0007 = assay: MIC; assay type: cell-based, A. baumanii
E. coli ATCC 25922 = assay: MIC, in vitro sensitivity of the strain used in vivo; conditions: Escherichia coli
K. pneumoniae EN0436 = assay: MIC; assay type: cell-based; conditions: in AZT+trimethoprim+uridine combination
S. typhimurium EN0466 = assay: MIC; assay type: cell-based, Salmonella typhimurium
K. oxytoca EN0392 = assay: MIC; assay type: cell-based, Klebsiella oxytoca
E. coli EN012 = assay: MIC; assay type: cell-based, Escherichia coli
P. aeruginosa EN015 = assay: MIC; assay type: cell-based, Pseudomonas aeruginosa; conditions: Pseudomonas aeruginosa, EN015, P. aeruginosa EN015
E. coli EN002 = assay: MIC; assay type: cell-based, Escherichia coli
K. pneumoniae EN0401 = assay: MIC; assay type: cell-based
S. flexneri APV00907 = assay: MIC; assay type: cell-based; conditions: S. flexneri APV00907
K. pneumoniae EN011 = assay: MIC; assay type: cell-based, Klebsiella pneumoniae; conditions: Klebsiella pneumoniae, EN011, K. pneumoniae EN011
K. pneumoniae EN0006 = assay: MIC; assay type: cell-based
S. flexneri APV00906 = assay: MIC; assay type: cell-based; conditions: S. flexneri APV00906
E. aerogenes EN0461 = assay: MIC; assay type: cell-based, Enterobacter aerogenes
E. coli EN001 = assay: MIC; assay type: cell-based, Escherichia coli
[3] = Combination 1 (AZT+trimethoprim+uridine)
[4] = in didanosine+trimethoprim+uridine combination
[5] = Combination 2 (same mixed with thymidine)
[6] = in AZT+trimethoprim+uridine combination
[7] = in FdUrd+trimethoprim+uridine combination

## COc1cc(Cc2cnc(N)nc2N)cc(OC)c1OC [Trimethoprim, trimethoprim]
K. pneumoniae EN010
  MIC: 0.25 µg/mL
S. epidermidis EN0456; [3]
  MIC: 0.064 µg/mL
S. epidermidis EN0456; [4]
  MIC: 0.125 µg/mL
A. baumannii EN017; [3]
  MIC: 1 µg/mL
A. baumannii EN017; [5]
  MIC: 1 µg/mL
A. baumannii EN017; [6]
  MIC: 1 µg/mL
A. baumannii EN017; [7]
  MIC: 1 µg/mL
A. baumannii EN017; [4]
  MIC: 2 µg/mL
K. pneumoniae EN0233
  MIC: 0.25 µg/mL
E. coli B EN0458; [7]
  MIC: 0.064 µg/mL
E. coli B EN0458; [4]
  MIC: 0.064 µg/mL
[1]
  MIC: 0.125 µg/mL
[2]; [6]
  MIC: 0.125 µg/mL
[2]; [7]
  MIC: 0.125 µg/mL
P. aeruginosa EN0004; [6]
  MIC: >4 µg/mL
P. aeruginosa EN0004; [7]
  MIC: >8 µg/mL
P. aeruginosa EN0004; [4]
  MIC: >8 µg/mL
E. coli EN0001; [6]
  MIC: 0.125 µg/mL
E. coli EN0001; [7]
  MIC: 0.5 µg/mL
E. coli EN0001; [4]
  MIC: 0.5 µg/mL
S. sonnei APV00908; [6]
  MIC: 0.03 µg/mL
S. sonnei APV00908; [7]
  MIC: >8 µg/mL
K. pneumoniae EN0463; [3]
  MIC: 0.125 µg/mL
K. pneumoniae EN0463; [5]
  MIC: 0.25 µg/mL
K. pneumoniae EN006
  MIC: 0.125 µg/mL
E. coli EN013; [3]
  MIC: < 0.008 µg/mL
E. coli EN013; [5]
  MIC: < 0.008 µg/mL
E. coli EN013; [6]
  MIC: < 0.008 µg/mL
E. coli EN013; [7]
  MIC: 0.032 µg/mL
E. coli EN013; [4]
  MIC: 0.032 µg/mL
A. baumannii EN0007; [6]
  MIC: >4 µg/mL
A. baumannii EN0007; [7]
  MIC: >8 µg/mL
A. baumannii EN0007; [4]
  MIC: >8 µg/mL
E. coli ATCC 25922; ATCC25922, read-out: MIC against E. coli ATCC 25922, Plate C: TMP alone
  MIC: 0.5 µg/mL (≈ 1.72 µM)
E. coli ATCC 25922; ATCC25922, read-out: MIC against E. coli ATCC 25922, Plate F: TMP with 2 μg/ml thymidine
  MIC: 1 µg/mL (≈ 3.44 µM)
E. coli ATCC 25922; ATCC25922, read-out: MIC against E. coli ATCC 25922: TMP, Plate A: AZT + TMP with 50 μg/ml uridine
  MIC: 0.06 µg/mL
E. coli ATCC 25922; ATCC25922, read-out: MIC against E. coli ATCC 25922: TMP, Plate D: AZT + TMP with 50 μg/ml uridine and 2 μg/ml thymidine
  MIC: 0.5 µg/mL
K. pneumoniae EN0436
  MIC: 0.125 µg/mL
S. typhimurium EN0466; [3]
  MIC: 0.064 µg/mL
S. typhimurium EN0466; [7]
  MIC: 0.25 µg/mL
K. oxytoca EN0392; [3]
  MIC: 0.064 µg/mL
K. oxytoca EN0392; [7]
  MIC: 0.25 µg/mL
E. coli EN012; [7]
  MIC: 0.064 µg/mL
E. coli EN012; [4]
  MIC: 0.125 µg/mL
P. aeruginosa EN015; [3]
  MIC: 2 µg/mL
P. aeruginosa EN015; [5]
  MIC: 2 µg/mL
P. aeruginosa EN015; [6]
  MIC: 2 µg/mL
P. aeruginosa EN015; [7]
  MIC: 2 µg/mL
P. aeruginosa EN015; [4]
  MIC: 2 µg/mL
E. coli EN002; [5]
  MIC: 0.125 µg/mL
E. coli EN002; [7]
  MIC: 0.064 µg/mL
E. coli EN002; [4]
  MIC: 0.064 µg/mL
K. pneumoniae EN0401; [7]
  MIC: >8 µg/mL
K. pneumoniae EN0401; [4]
  MIC: >8 µg/mL
S. flexneri APV00907; [6]
  MIC: 2 µg/mL
S. flexneri APV00907; [7]
  MIC: >8 µg/mL
K. pneumoniae EN011; [3]
  MIC: 0.032 µg/mL
K. pneumoniae EN011; [5]
  MIC: 0.25 µg/mL
K. pneumoniae EN011; [6]
  MIC: 0.125 µg/mL
K. pneumoniae EN011; [7]
  MIC: 0.125 µg/mL
K. pneumoniae EN011; [4]
  MIC: 0.25 µg/mL
K. pneumoniae EN0006; [6]
  MIC: 0.25 µg/mL
K. pneumoniae EN0006; [7]
  MIC: 1 µg/mL
K. pneumoniae EN0006; [4]
  MIC: 1 µg/mL
S. flexneri APV00906; [6]
  MIC: 1 µg/mL
S. flexneri APV00906; [7]
  MIC: >8 µg/mL
E. aerogenes EN0461; [3]
  MIC: 0.25 µg/mL
E. aerogenes EN0461; [6]
  MIC: 0.25 µg/mL
E. coli EN001; [3]
  MIC: 0.064 µg/mL
E. coli EN001; [7]
  MIC: 0.25 µg/mL
E. coli EN001; [4]
  MIC: 0.25 µg/mL
